Key:
[1] = tested on: HTCFs; experiment: Collagen Contraction Assay V (AHGF induced, APHS and gentamicin vs mitomycin C); assay type: cell-based, human; details: APHS 12 and 24 μg/ml
Method: HTCFs were seeded at a density of 2.5×10^5 cells/mL within an extracellular matrix (ECM) mixture containing 400 ul of rat tail-derived type I collagen (1.8 mg/ml), 80 ul of neutralizing solution (equal parts Waymouth's media (Gibco, CAT. NO: 11220035) and 0.275M NaOH) and 20 ul of HTCF conditioned media (concentrated to 25× to obtain a 1× final concentration within the 500 ul matrix solution). The cell-collagen solution was pipetted gently to ensure homogenous distribution of HTCFs while avoiding the production of air bubbles, then 500 ul were pipetted into each well of a 24-well tray. Collagen constructs were allowed to polymerize at 37 C for 45 minutes before adding low serum culture media containing DMEM, 2% Fetal Bovine Serum (FBS), 1% penicillin/streptomycin (P/S).
Tension was allowed to build up within the tethered matrix at 37 C and 5% CO2 for 72 hours before a sterile spatula was used to detach each collagen construct from the edges of the culture well. Plates were then immediately scanned on a flat bed laser scanner to record baseline area, and then measured periodically for a duration of 4 days. The surface area of each collagen construct was measured using ImageJ (NIH) and standardized against the baseline surface area measurement to express changes in area as a percentage of original surface area. […]

[2] = tested on: human Tenon's capsule fibroblasts (HTCFs); experiment: Collagen Contraction Assay I (delayed release fibroblast populated collagen lattice); assay type: cell-based
Method: The delayed release fibroblast populated collagen lattice model was used to assess inhibition of gel contraction [58] by ASA and gentamicin. […] Cell free collagen lattices were prepared identically, however to isolate the effects of HTCFs alone on collagen, constructs without HTCFs were cast as a negative control. The cell-collagen solution was pipetted gently to ensure homogenous distribution of HTCFs while avoiding the production of air bubbles, then 500 ul were pipetted into each well of a 24-well tray. Collagen constructs were allowed to polymerize at 37 C for 45 minutes before adding low serum culture media containing DMEM, 2% Fetal Bovine Serum (FBS), 1% penicillin/streptomycin (P/S).
Tension was allowed to build up within the tethered matrix at 37 C and 5% CO2 for 72 hours before a sterile spatula was used to detach each collagen construct from the edges of the culture well. Plates were then immediately scanned on a flat bed laser scanner and then once per hour for the first 12 hours, then daily for a total of 4 days. The surface area of each collagen construct was measured using ImageJ (NIH) and standardized against the baseline surface area measurement to express changes in area as a percentage of original surface area.
Vehicle control treatment solution comprised of DMEM with 2% FBS and 1% penicillin/streptomycin. The gentamicin treatment solution contained DMEM with 2% FBS, 1% penicillin/streptomycin and 1000 μg/ml gentamicin (w/vol) (Sigma-Aldrich, CAT. NO: G1397). The ASA treatment solution contained DMEM with 2% FBS, 1% penicillin/streptomycin and 2000 μg/ml ASA (w/vol) (Sigma-Aldrich, CAT. NO: A5376). The gentamicin-ASA combination treatment solution (Gent+ASA) contained DMEM with 2% FBS, 1% penicillin/streptomycin, 1000 μg/ml gentamicin (w/vol.) and 2000 μg/ml ASA (w/vo).
Culture media was removed from collagen constructs twice daily and replaced with one of the four treatment solutions for a duration of 15 minutes. […]

[3] = tested on: HTCFs; experiment: Lipid Mediator Secretion Assay I (ASA with and without melittin, LC-MS/MS); assay type: cell-based, human; details: ASA 200 μg/ml
Method: The aim of this experiment was to assess the relative secretion of COX2 vs. acetylated-COX2 products from HTCFs after an inflammatory stimulus followed by exposure to ASA with and without an extremely potent PLA2 agonist—melittin. To this end, multiple primary HTCF cell lines were cultured in DMEM w/10% FBS in 6-well culture plates, incubated at 37 C and 5% CO2, until 90% confluent. The culture media was removed, wells washed with PBS, and then fresh DMEM w/0% FBS was added. After 24 hrs of serum starvation, fresh DMEM w/0% FBS was added, this time containing a physiologically relevant inflammation/wound healing induction mixture (1 ng/ml each of: IL-1b, TNFa, IFNγ, TGFb). After 12 hrs incubation, the induction media was removed, the wells were washed with PBS and fresh DMEM w/0% FBS was added containing one of three experimental treatments for an incubation period of 24 hrs: 1) vehicle control (DMEM w/0% FBS), and 2) ASA 200 (DMEM w/0% FBS and 200 μg/ml ASA), and 3) ASA/Mel. (DMEM w/0% FBS, 200 μg/ml ASA and 10 μg/ml of melittin, a potent PLA2 agonist). At 6, 12 and 24 hrs after addition of the experimental treatments, 250 ul of supernatant was removed from each well, replaced with 250 ul of fresh DMEM w/0% FBS, and stored at −80° C. for subsequent LC-MS/MS analysis. After 24 hrs, the wells were washed with ice cold PBS three times and total cellular protein from the HTCF monolayer was collected for quantification and subsequent western blot analyses. The absolute quantity of protein within each culture well's HTCF monolayer was used as a means to standardize the relative secretion of lipid mediators by HTCFs into the culture well's supernatant.
Relative quantification of secreted lipid mediators was achieved using liquid chromatography tandem mass spectrometry combined with the addition of a known quantity of deuterated versions of the lipid mediators to each sample as internal standards (Item Numbers: #10007737, #320110, #314010, #11182, #315210, #319030, #390030, #10006410, #10006199, #334230, and #10008040, Cayman Chemical). This is a well-established method to determine the relative activity of cyclooxygenase, acetyl-COX2 and lipoxygenase biosynthetic pathways. In brief, the ratios of the integrated areas of the chromatographic peaks corresponding to each analyte and the integrated areas of the peaks corresponding to each analyte's internal standard (with known absolute quantity) are used to determine the relative quantity of each analyte in a given sample. […] The chromatographic profile of the ion count for each m/z transition was monitored, and the area under the peaks (ion intensity vs elution time) was integrated using commercial software (MultiQuant, Sciex).

[4] = tested on: HTCFs; experiment: Collagen Contraction Assay II (dose dependence); assay type: cell-based, human
Method: Tension was allowed to build up within the tethered matrix at 37 C and 5% CO2 for 72 hours before a sterile spatula was used to detach each collagen construct from the edges of the culture well. Plates were then immediately scanned on a flat bed laser scanner once per 24 hours for a total of 4 days. The surface area of each collagen construct was measured using ImageJ (NIH) and standardized against the baseline surface area measurement to express changes in area as a percentage of original surface area.
The gentamicin concentrations assessed were delivered in a solution contained DMEM with 2% FBS, 1% penicillin/streptomycin and either 100, 250, 500, 750 or 100 μg/ml gentamicin (Sigma-Aldrich, CAT. NO: G1397). The ASA concentrations assessed were delivered in a solution of DMEM with 2% FBS, 1% penicillin/streptomycin and either 500, 1000 or 1500 μg/ml ASA (Sigma-Aldrich, CAT. NO: A5376). […]

[5] = tested on: HTCFs; experiment: Collagen Contraction Assay IV (AHGF induced, ASA and gentamicin vs mitomycin C); assay type: cell-based, human; details: ASA 1500 μg/ml and/or gentamicin 750 μg/ml; comparator mitomycin C 0.2 mg/ml for 4 minutes
Method: Tension was allowed to build up within the tethered matrix at 37 C and 5% CO2 for 72 hours before a sterile spatula was used to detach each collagen construct from the edges of the culture well. Plates were then immediately scanned on a flat bed laser scanner and then periodically for a total of 4 days. The surface area of each collagen construct was measured using ImageJ (NIH) and standardized against the baseline surface area measurement to express changes in area as a percentage of original surface area.
In this modification of the assay, AHGFs are added to all culture media the collagen constructs are exposed to—from casting of the collagen constructs to the conclusion of contraction. The experimental treatment solutions—all also containing AHGFs—were added 30 minutes prior to detaching the collagen constructs from the culture wells and remained until experimental conclusion. […] DMEM w/2% FBS was added for the remainder of the experiment).

[6] = alone or with melittin 10 μg/ml, vs vehicle control

| Structure (SMILES) | AHGF-induced HTCF-mediated collagen contraction [1] | contraction evident by the end of the four-day period ([2]; ASA 2000 μg/ml alone) | HTCF mediated collagen contraction ([2]; gentamicin 1000 μg/ml and/or ASA 2000 μg/ml, 15 minutes twice daily, four day assay, vs vehicle control) | relative amount of COX2 products relative to inf. cytokines control [3] | relative secretion of precursor PUFAs (AA, DHA and EPA) ([3]; alone or with melittin 10 μg/ml, supernatant at 6, 12, 24 hrs) | relative secretion of acetylated-COX2 products [3, 6] | secretion of COX2 products [3, 6] | HTCF-mediated collagen contraction ([4]; ASA 500 μg/ml, alone or with gentamicin 100-1000 μg/ml (FIG. 8C)) | HTCF-mediated collagen contraction ([4]; ASA alone, 500, 1000, 1500 μg/ml, four days (FIG. 8B)) | AHGF induced, HTCF-mediated collagen contraction [5] |
| --- | --- | --- | --- | --- | --- | --- | --- | --- | --- | --- |
| CCCCC#CCSc1ccccc1OC(C)=O [APHS, o-(acetoxyphenyl)hept-2-ynyl sulfide] | significantly inhibited AHGF-induced HTCF-mediated collagen contraction |  |  |  |  |  |  |  |  |  |
| CC(=O)Oc1ccccc1C(=O)O [ASA, acetylsalicylic acid] |  | approximately 20% | significantly inhibited contraction compared to vehicle control at all time points after the first hour of the experiment | decrease the relative amount of COX2 products relative to inf. cytokines control | no significant increase in relative secretion of precursor PUFAs | no significant increase in the relative secretion of acetylated-COX2 products | decrease the secretion of COX2 products relative to vehicle control; however this effect was not statistically significant | no significant treatment effects found | dose dependent inhibition of HTCF-mediated collagen contraction | significantly negate the effects of the AHGFs on HTCF-mediated collagen contraction, albeit significantly less than the current ophthalmic clinical gold standard |

Reference: patent publication US20210196731A1, “COMPOSITIONS AND METHODS FOR TREATING OCULAR INFLAMMATION AND OCULAR SCARRING” (priority 2018, published 2021)
